Results on 26 compounds are retold here after patent US10660789B2, “1,4-dihydropyridine derivatives with HSP modulating activity” (Richter Gedeon NYRT., priority 2011, dated 2020).

Molecules are shown by their SMILES. Counter-ions that a name gives are not always drawn.

In the first series the test system is other Hsps. The series is described as follows: Other in vitro HSP modulating effects (Table 3). The series is classed as cell-based, mouse and human. Also on record: key: +: co-inducing activity; −: silencing activity; 0: with the experimental methods applied no other HSP modulating effects could be identified. The method, then: The Hsp co-inducing effect of the compounds on stress response was tested on B16 mouse melanoma and SHSY5Y human neuroblastoma cell lines stably transfected with Hsp promoter probing plasmids. This kind of promoter probing, using the promoter region of a given gene conjugated with fluorescent protein is used as a best and fastest test system for finding drugs which modulate the activity of the gene followed by the given promoter (Wyshocka et al., Mol. Cel. Biochem. 215:153-156, 2000).
Reporter plasmids, containing the Hsp70 and/or Hsp25 promoter conjugated to either YFP or GFP (yellow or green fluorescent protein), were stably transfected into the cells and the expression of YFP or GFP was followed by flow cytometry. Cells were either kept at 37° C. or exposed to heat shock at 42° C. for 1 hour followed by a 16 hour recovery period at 37° C. in the presence or absence of different concentrations of the test compound. After recovery the expression of YFP or GFP which is in straight correlation with the promoter activity of Hsp70 or Hsp27 genes was followed by measuring the fluorescence intensity of the cells by flow cytometry. Fluorescence intensity is in straight correlation with the amount of fluorescent protein (GFP or YFP) produced under the control of hsp promoter. The mean fluorescence intensity of YFP or GFP produced is shown as “Hsp promoter activity”.
Cells were homogenously distributed on 6-well plates in 1×10^5 cells/well density. B16-pHsp25-GFP and B16-pHsp70-YFP melanoma cells were grown in RPMI-1640 medium supplemented with 10% Fetal bovine serum (FBS), penicillin (200 units/ml), streptomycin (200 μg/ml) and 2 mM L-Glutamine. For maintaining the SH-SY5Y-pHsp25-GFP and SH-SY5YpHsp70-YFP neuroblastoma cell lines Dulbecco's modified Eagle's medium (DMEM-F-12) containing 10% FBS, 2 mM L-Glutamine, penicillin (200 units/ml), streptomycin (200 μg/ml) and MEM non-essential amino acids were used. Before the treatments both cell lines were incubated at 37° C. in a saturated humidity atmosphere containing 95% air and 5% CO2. After 24 h incubation cells were pretreated with compounds of the invention in four different concentrations (usually in 3; 10; 20 and 50 μM) 30 min before the heat shock at 42° C. for 1 h and then incubated further at 37° C. for 16 h (recovery period). After this procedure cells were trypsinized and suspensed in 500 μl serum-free DMEM-F12 medium. The changes in cells' fluorescence were detected using BD FACSCalibur flow cytometer.
SY-SY5Y and B16 cells were extracted in NP-40 lysis buffer (PBS pH 7.4, 1% protease inhibitor coctail and 1% Triton X-100). The cell extracts were then constantly agitated at 4° C. for 2 h. The cell extracts were centrifuged at 12000×g for 30 min and supernatants were saved. After the protein concentration measurement 15 μg of total protein was separated by sodium dodecyl sulfate-polyacrylamide gel electrophoresis (SDS-PAGE) under reducing conditions according to the method of Laemmli. Proteins were blotted onto PVDF membrane. The blot was incubated overnight at 4° C. in the presence of mouse α-Hsp25, α-Hsp70, α-Hsp60 és α-Hsp90 monoclonal antibodies diluted in PBS. Then, the membrane was washed three times in PBS-0.05% Tween and incubated for 1 h in peroxidase-conjugated anti-mouse IgG antibody diluted 1:50000 in PBS containing 3% non-fat dry milk. The immune complexes were detected with chemo-luminescent substrate of peroxidase according to the supplier's instructions. Images taken from the membranes were analyzed using AlphaEase FC software.
On to `COC(=O)C1=C(C)N(C)C(C)=C(C(=O)OC)C1c1ccc(OC)cc1` [Example 6, Dimethyl 1,2,6-trimethyl-4-(4-methoxyphenyl)-1,4-dihydropyridine-3,5-dicarboxylate], for which the “Other in vitro effects” value amounted to 0.
Still for that read-out and setting: to `COC(=O)C1=C(C)N(C)C(CN2CCc3ccccc3C2)=C(C(=O)OC)C1c1ccc(C(F)(F)F)cc1.Cl` (centres unmarked) [Example 49, Dimethyl 2-(1,2,3,4-tetrahydro-1H-isoquinolin-2-ylmethyl)-1,6-dimethyl-4-(4-trifluoromethylphenyl)-1,4-dihydropyridine-3,5-dicarboxylate hydrochloride] belongs 0; to `COC(=O)C1=C(C)N(C)C(C)=C(C(=O)OC)C1c1ccc(Cl)cc1` [Example 4, Dimethyl 1,2,6-trimethyl-4-(4-chlorophenyl)-1,4-dihydropyridine-3,5-dicarboxylate], 0.
On to `COC(=O)C1=C(CCN2CCN(C)CC2)N(C)C(CCN2CCN(C)CC2)=C(C(=O)OC)C1c1ccc(C(F)(F)F)cc1` [Example 16, Dimethyl 1-methyl-2,6-bis-[2-(4-methyl-piperazin-1-yl)-ethyl]-4-(4-trifluoromethylphenyl)-1,4-dihydropyridine-3,5-dicarboxylate hydrochloride], for which the “Other in vitro effects” value is 0.

Test system in a further series: not given
Test: not given
Regarding `COC(=O)C1=C(C)N(C)C(CCN2CCCC2)=C(C(=O)OC)C1c1ccc(C(F)(F)F)cc1.Cl` (centres unmarked), the melting point – broadly, the temperature of the solid-liquid transition – was in the range of 218 to 219 °C.
The same measure, in the same setting: to `COC(=O)C1=C(C)N(C)C(C)=C(C(=O)O)C1c1ccc(C(F)(F)F)cc1` (centres unmarked) [Example 35, 1,2,6-Trimethyl-4-(4-trifluoromethylphenyl)-1,4-dihydropyridine-3,5-dicarboxylic acid monomethyl ester] belongs 150 to 155 °C.
On the same count and under the same terms, in the case of `COC(=O)C1=C(C#N)N(C)C(CN2CCCC2)=C(C(=O)OC)C1c1ccc(C(F)(F)F)cc1.Cl` (centres unmarked) it was 173 to 175 °C.
Compound `COC(=O)C1=C(C)N(C)C(C)=C(C(=O)OC)C1c1ccccc1Cl` [Example 18, Dimethyl 4-(2-chlorophenyl)-1,2,6-trimethyl-1,4-dihydropyridine-3,5-dicarboxylate] came in with a melting point of 154 to 155 °C.
The same measure, in the same setting: to `COC(=O)C1=C(CCN(C)C)N(C)C(CCN2CCCCC2)=C(C(=O)OC)C1c1ccc(C(F)(F)F)cc1` (centres unmarked) (as salt: hydrochloride) [Example 30, Dimethyl 2-(2-dimethylamino-ethyl)-1-methyl-6-(2-piperidin-1-yl-ethyl)-4-(4-trifluoromethylphenyl)-1,4-dihydropyridine-3,5-dicarboxylate dihydrochloride] belongs 247 to 249 °C; to `COC(=O)C1=C(C)N(C)C(C)=C(C(=O)OC(C)C)C1c1ccc(C(F)(F)F)cc1` (centres unmarked) [Example 28, 1,2,6-Trimethyl-4-(4-trifluoromethylphenyl)-1,4-dihydropyridine-3,5-dicarboxylic acid 3-isopropyl ester 5-methyl ester], 92 to 94 °C.
Regarding `COC(=O)C1=C(CCN(C)C)N(C)C(CCN(C)C)=C(C(=O)OC)C1c1cc(F)cc(F)c1` (as salt: hydrochloride) [Example 25, Dimethyl 4-(3,5-Difluorophenyl)-2,6-bis-(2-dimethylaminoethyl)-1-methyl-1,4-dihydropyridine-3,5-dicarboxylate dihydrochloride], the melting point fell in the range of 261 to 265 °C.
On the same count and under the same terms, in the case of `COC(=O)C1=C(C)N(C)C(CCN2CCOCC2)=C(C(=O)OC)C1c1ccc(C(F)(F)F)cc1.Cl` (centres unmarked) it was 188 to 193 °C; in that of `COC(=O)C1=C(C)N(C)C(CCN2CCc3ccccc3CC2)=C(C(=O)OC)C1c1ccc(C(F)(F)F)cc1.O=C(O)/C=C/C(=O)O` (centres unmarked), 202 to 203 °C; in that of `CC1=C(C(=O)O)C(c2ccc(C(F)(F)F)cc2)C(C(=O)O)=C(C)N1C` [Example 36, 1,2,6-Trimethyl-4-(4-trifluoromethylphenyl)-1,4-dihydropyridine-3,5-dicarboxylic acid], 152 to 153 °C.
The same measure, in the same setting: to `COC(=O)C1=C(C#N)N(C)C(CCN(C)C)=C(C(=O)OC)C1c1ccc(C(F)(F)F)cc1.Cl` (centres unmarked) belongs 215 to 216 °C; to `COC(=O)C1=C(C)N(C)C(CCN2CCOCC2)=C(C(=O)OC)C1c1ccccc1Cl.Cl` (centres unmarked), 171 to 173 °C.
`COC(=O)C1=C(CCN(C)C)N(C)C(CCN2CCc3cc(OC)c(OC)cc3C2)=C(C(=O)OC)C1c1ccc(C(F)(F)F)cc1` (centres unmarked) (as salt: hydrochloride) [Example 42, Dimethyl 2-[2-(6,7-dimethoxy-1,2,3,4-tetrahydroisoquinolin-2-yl)-ethyl]-6-(2-dimethylamino-ethyl)-1-methyl-4-(4-trifluoromethylphenyl)-1,4-dihydropyridine-3,5-dicarboxylate dihydrochloride] returned a melting point of 210 to 211 °C.
As to `COC(=O)C1=C(CCN2CCCC2)N(C)C(CCN2CCCC2)=C(C(=O)OC)C1c1ccccc1Cl` (as salt: hydrochloride) [Example 19, Dimethyl 4-(2-chlorophenyl)-1-methyl-2,6-bis-(2-pyrrolidin-1-yl-ethyl)-1,4-dihydropyridine-3,5-dicarboxylate dihydrochloride], the melting point lay within 188 to 193 °C.
The same measure, in the same setting: to `COC(=O)C1=C(C)N(C)C(C)=C(C(=O)OC)C1c1ccc(C)cc1` [Example 5, Dimethyl 1,2,6-trimethyl-4-(4-methylphenyl)-1,4-dihydropyridine-3,5-dicarboxylate] belongs 176 to 178 °C; to `COC(=O)C1=C(CCN(C)C)N(C)C(CCN(C)C)=C(C(=O)OC)C1c1ccccc1Cl` (as salt: hydrochloride) [Example 22, Dimethyl 4-(2-chorophenyl)-2,6-bis-(2-dimethylaminoethyl)-1-methyl-1,4-dihydropyridine-3,5-dicarboxylate dihydrochloride], 241 to 245 °C; to `COC(=O)C1=C(CCN2CCN(C)CC2)N(C)C(CCN2CCN(C)CC2)=C(C(=O)OC)C1c1ccccc1Cl` (as salt: hydrochloride), 210 to 215 °C.
Take `COC(=O)C1=C(CCN2CCN(C)CC2)N(C)C(CCN2CCN(C)CC2)=C(C(=O)OC)C1c1ccc(C(F)(F)F)cc1` (as salt: hydrochloride) [Example 16, Dimethyl 1-methyl-2,6-bis-[2-(4-methyl-piperazin-1-yl)-ethyl]-4-(4-trifluoromethylphenyl)-1,4-dihydropyridine-3,5-dicarboxylate hydrochloride]: the melting point lay within 195 to 200 °C.
The same measure, in the same setting: to `COC(=O)C1=C(C)N(C)C(C)=C(C(=O)OC)C1c1ccc(OC)cc1` [Example 6, Dimethyl 1,2,6-trimethyl-4-(4-methoxyphenyl)-1,4-dihydropyridine-3,5-dicarboxylate] belongs 163 to 164 °C; to `COC(=O)C1=C(C)N(C)C(C)=C(C(=O)OC(C)(C)C)C1c1ccc(C(F)(F)F)cc1` (centres unmarked) [Example 29, 1,2,6-Trimethyl-4-(4-trifluoromethylphenyl)-1,4-dihydropyridine-3,5-dicarboxylic acid 3-tert-butyl ester 5-methyl ester], 128 to 130 °C; to `COC(=O)C1=C(C)N(C)C(CN2CCc3ccccc3C2)=C(C(=O)OC)C1c1ccc(C(F)(F)F)cc1.Cl` (centres unmarked) [Example 49, Dimethyl 2-(1,2,3,4-tetrahydro-1H-isoquinolin-2-ylmethyl)-1,6-dimethyl-4-(4-trifluoromethylphenyl)-1,4-dihydropyridine-3,5-dicarboxylate hydrochloride], 175 to 177 °C.
The compound `COC(=O)C1=C(C)N(C)C(C)=C(C(=O)OC)C1c1ccc(Cl)cc1` [Example 4, Dimethyl 1,2,6-trimethyl-4-(4-chlorophenyl)-1,4-dihydropyridine-3,5-dicarboxylate] came in with a melting point of 179 to 180 °C.
Turning to `COC(=O)C1=C(C)N(C)C(CN2CCCCC2)=C(C(=O)OC)C1c1ccc(C(F)(F)F)cc1.Cl` (centres unmarked), the melting point was 190 to 192 °C.
For `COC(=O)C1=C(C)N(C)C(CN2CCCC2)=C(C(=O)OC)C1c1ccc(C(F)(F)F)cc1.Cl` (centres unmarked), the melting point was 182 to 185 °C.
On to `COC(=O)C1=C(CCN(C)C)N(C)C(CCN2CCOCC2)=C(C(=O)OC)C1c1ccc(C(F)(F)F)cc1` (centres unmarked) (as salt: hydrochloride) [Example 31, Dimethyl 2-(2-dimethylamino-ethyl)-1-methyl-6-(2-morpholin-1-yl-ethyl)-4-(4-trifluoromethylphenyl)-1,4-dihydropyridine-3,5-dicarboxylate dihydrochloride], for which the melting point is 247 to 248 °C.
